Like-named read-outs stand apart in the source and are kept apart here. Residues, ends and D or L forms follow the SMILES beside them. *: point of attachment. αGalNAc = CC(=O)N[C@@H]1[C@@H](O)[C@@H](O)[C@@H](CO)O[C@@H]1*; X2 = c1ccc2nc(C*)ccc2c1; X1 = c1csc(C*)c1
Experiments:
GalNAc-T2 [1] = molecular target: T1, GalNAc-T2 (Homo sapiens, UniProt Q10471); assay: Radiometric GalNAc-T2 inhibition assay with labeled UDP-GalNAc donor and MUC1a acceptor peptide; format: biochemical; details: for Relative inhibitory activity against GalNAc-T2: normalized concentration of 500 μM
T1 construct: made in house; host or cells: Pichia pastoris
Description: The glycosylation products were isolated from the radiolabeled donors through chromatographic techniques and analyzed by scintillation counting.
(§1) 347 4. BIOCHEMICAL STUDIES
(§2) 348 4.1. Reagents and substrates
(§3) 349 Stock solutions of inhibitor (5mM) and MUC1a substrate (4mM) were prepared from
(§4) 350 lyophilized powders. Additional serial dilutions of inhibitor were prepared of 1 mM, 200 µM, 50
(§5) 351 µM, 10 µM, and 2 µM and the MUC1a substrate of 62.5 µM. Fully N-acetylated UDP-
(§6) 352 [ 3H]GalNAc was obtained from American Radiolabeled Chemicals Inc (St. Louis, MO) whereas
(§7) 353 nonlabelled UDP-GalNAc was obtained from Millipore-Sigma (St. Louis, MO). A 0.2 mM stock
(§8) 354 solution of radiolabeled UDP-GalNAc was prepared by adding UDP-[ 3H]GalNAc to unlabeled
(§9) 355 UDP-GalNAc to give ~6 x 10^8 DPM/µmole. ScintiVerse BD Cocktail fluid was obtained from
(§10) 356 Fisher Scientific (Pittsburgh, PA). Liquid scintillation counting was performed on a Beckman
(§11) 357 LS 6500 Scintillation Counter. BioPureSPN TARGA C18 macro spin columns were obtained
(§12) 358 from The Nest Group Inc. (Ipswich, MA).
(§13) 360 4.2. GalNAc-Ts expression
(§14) 361 Human GalNAc-T1 was a gift of Kelley Moremen (CCRC, University of Georgia) and
(§15) 362 expressed in HEK293F cells. Human GalNAc-T2, and -T3 were obtained from Ramon
363 Hertado-Guerrero (University of Zaragosa, SP) and expressed in Pichia pastoris.
366 The glycomimetic inhibitors were optimized using GalNAc-T2 activity assays as previously
367 described. The reactions were carried out in a total volume of 50 µl, containing 100 nM
369 cpm/nm) as the sugar donor. The designed glycomimetics were tested at a range of
371 conducted in 25 mM cacodylate buffer (pH 7.4) with 10 mM MnCl 2 and 0.25% Triton X-100,
372 and incubated at 22°C for 30 minutes. Excess UDP-[ 14C]GalNAc was removed from the
373 glycosylated peptide using DOWEX 1 chromatography, the product was subsequently
374 analyzed through scintillation counting.
377 protocol was used except UDP-[ 3H]GalNAc was utilized and the products isolated on Targa
378 C18 spin columns as previously described. Final enzyme concentrations were 100 nM for
379 GalNAc-T1 and -T3 and 200 nM for GalNAc-T2 while final MUC1a substrate and inhibitor 5
380 concentrations were as above. Reactions were incubated at 22°C for 30min for GalNAc-T1
381 and -T3 and 3h for GalNAc-T2. After incubation, reactions were quenched with 200µL of 0.5%
382 TFA in H 2O and passed through the spin columns. Columns were extensively washed with
383 0.1% TFA/H 2O and glycopeptide products eluted with 0.1% TFA in 50/50 acetonitrile/H2O
384 followed by 100% acetonitrile. The different eluates were analyzed by scintillation counting on
385 a Beckman LS 6500 Scintillation Counter. Relative percent peptide glycosylation was
386 calculated from the obtained 3H DPM as described in Ballard et al 2023. Reactions were
387 repeated twice for each transferase. After subtracting the no substrate blank, under these
390 Percent activity was plotted against the log concentration of inhibitor 19 in µM. […]

GalNAc-T3 [2] = molecular target: T2, GalNAc-T3 (Homo sapiens, UniProt Q14435); assay: Radiometric GalNAc-T3 inhibition assay with UDP-[3H]GalNAc and MUC1a acceptor peptide; format: biochemical
T2 construct: made in house; host or cells: Pichia pastoris
T2 sequence (Q14435 1-633): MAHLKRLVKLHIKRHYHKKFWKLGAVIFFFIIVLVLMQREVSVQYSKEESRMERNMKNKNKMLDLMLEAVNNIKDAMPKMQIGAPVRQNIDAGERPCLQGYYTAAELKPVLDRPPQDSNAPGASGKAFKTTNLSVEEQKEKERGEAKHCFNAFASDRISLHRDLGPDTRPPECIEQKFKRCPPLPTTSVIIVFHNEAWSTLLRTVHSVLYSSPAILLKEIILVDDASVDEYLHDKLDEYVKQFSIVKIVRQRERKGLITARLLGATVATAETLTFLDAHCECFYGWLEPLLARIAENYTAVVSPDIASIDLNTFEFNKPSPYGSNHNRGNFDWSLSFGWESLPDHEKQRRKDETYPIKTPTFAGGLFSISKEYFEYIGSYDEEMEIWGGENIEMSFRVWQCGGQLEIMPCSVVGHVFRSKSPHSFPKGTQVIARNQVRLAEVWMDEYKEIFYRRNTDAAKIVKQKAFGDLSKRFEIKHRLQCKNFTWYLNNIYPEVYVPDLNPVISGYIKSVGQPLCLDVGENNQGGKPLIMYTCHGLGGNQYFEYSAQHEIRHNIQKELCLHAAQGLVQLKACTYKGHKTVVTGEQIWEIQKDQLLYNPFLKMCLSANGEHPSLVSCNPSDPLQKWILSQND
Description: as §1, §2, §3, §4, §5, §6, §7, §8, §9, §10, §11, §12, §13, §14, §15
(§16) 363 Hertado-Guerrero (University of Zaragosa, SP) and expressed in Pichia pastoris. […]
(§17) 384 followed by 100% acetonitrile. The different eluates were analyzed by scintillation counting on […]
(§18) 386 calculated from the obtained 3H DPM as described in Ballard et al 2023. […]

GalNAc-T1 [3] = molecular target: T3, GalNAc-T1 (Homo sapiens, UniProt Q10472); assay: Radiometric GalNAc-T1 inhibition assay with UDP-[3H]GalNAc and MUC1a acceptor peptide; format: biochemical
T3 construct: made in house; host or cells: HEK293F cells (gift of Kelley Moremen, CCRC, University of Georgia)
T3 sequence (Q10472 1-559): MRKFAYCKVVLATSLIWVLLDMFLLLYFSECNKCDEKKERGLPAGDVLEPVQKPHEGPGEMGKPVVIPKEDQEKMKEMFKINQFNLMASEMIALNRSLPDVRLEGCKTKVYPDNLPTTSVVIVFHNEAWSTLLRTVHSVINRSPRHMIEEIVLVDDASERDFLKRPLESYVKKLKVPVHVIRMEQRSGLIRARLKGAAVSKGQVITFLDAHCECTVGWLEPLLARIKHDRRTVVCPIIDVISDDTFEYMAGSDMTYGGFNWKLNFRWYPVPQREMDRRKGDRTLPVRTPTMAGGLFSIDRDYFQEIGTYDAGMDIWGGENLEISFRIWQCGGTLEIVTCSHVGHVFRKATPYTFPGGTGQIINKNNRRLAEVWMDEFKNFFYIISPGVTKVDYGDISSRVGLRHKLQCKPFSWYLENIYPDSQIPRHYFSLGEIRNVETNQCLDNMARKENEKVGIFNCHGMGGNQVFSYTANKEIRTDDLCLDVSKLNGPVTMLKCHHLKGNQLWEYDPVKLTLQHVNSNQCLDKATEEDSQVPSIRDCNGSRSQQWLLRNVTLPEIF
Description: as §1, §2, §3, §4, §5, §6, §7, §8, §9, §10, §11, §12, §13, §14, §15, §16
367 described. […]
as §17, §18

GalNAc-T2 [4] = test system: GalNAc-T2; set-up: method as in PMID 28362263; details: cited from earlier work
GalNAc-T6 = test system: GalNAc-T6; set-up: method as in PMID 28362263; details: cited from earlier work
GalNAc-T3 [5] = test system: GalNAc-T3; set-up: method as in PMID 28362263; details: cited from earlier work
FGF23 levels = test system: FGF23 levels; set-up: method as in PMID 28362263; details: chronic kidney disease treatment; cited from earlier work
GalNAc-T2 [6] = test system: GalNAc-T2; set-up: method as in Wandall H. H. et al., [16]; details: ref Wandall H. H. et al., [16], cited from earlier work
GalNAc-T1 [7] = test system: GalNAc-T1; set-up: method as in Wandall H. H. et al., [16]; details: ref Wandall H. H. et al., [16], cited from earlier work
GalNAc-T3 [8] = test system: GalNAc-T3; set-up: method as in Wandall H. H. et al., [16]; details: ref Wandall H. H. et al., [16], cited from earlier work
GalNAc-T2 [9] = test system: GalNAc-T2; set-up: method as in PMID 29061849; details: read-out: IC50 against GalNAc-T2; cited from earlier work
[10] = calculated from IC50 by Cheng & Prusoff equation, MUC1a and UDP-GalNAc substrates

T1 sequence (Q10471 whole entry): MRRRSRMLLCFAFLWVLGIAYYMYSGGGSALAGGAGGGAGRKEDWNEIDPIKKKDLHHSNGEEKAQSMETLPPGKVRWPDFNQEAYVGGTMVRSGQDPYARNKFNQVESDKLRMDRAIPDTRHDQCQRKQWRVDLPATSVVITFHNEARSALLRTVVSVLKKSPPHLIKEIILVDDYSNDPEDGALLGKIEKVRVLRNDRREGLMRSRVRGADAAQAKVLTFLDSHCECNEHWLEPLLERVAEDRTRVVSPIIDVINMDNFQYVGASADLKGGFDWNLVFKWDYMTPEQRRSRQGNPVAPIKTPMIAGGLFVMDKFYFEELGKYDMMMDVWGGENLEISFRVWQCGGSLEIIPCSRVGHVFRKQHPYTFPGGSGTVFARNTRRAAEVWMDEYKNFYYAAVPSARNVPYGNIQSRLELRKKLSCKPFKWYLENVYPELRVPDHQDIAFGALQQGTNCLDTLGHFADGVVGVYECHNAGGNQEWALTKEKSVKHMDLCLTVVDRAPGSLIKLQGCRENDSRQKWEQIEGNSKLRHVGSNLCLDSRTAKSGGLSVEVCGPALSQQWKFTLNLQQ

## CC(=O)N[C@H]1[C@@H](O[C@H](C)[C@H](NC(=O)[C@H](C)NC(=O)[C@H](C)NC(=O)[C@H](C)NC(=O)[C@H](C)NC(=O)[C@@H]2CCCN2C(=O)[C@@H](NC(=O)[C@@H]2CCCN2C(=O)[C@H](CSCc2ccc3ccccc3n2)NC(=O)[C@@H]2CCCN2C(=O)[C@H](C)NC(=O)[C@H](C)NC(=O)CN)C(C)C)C(=O)N[C@@H](C)C(=O)N[C@@H](C)C(N)=O)O[C@H](CO)[C@H](O)[C@@H]1O [Compound 2] (H-GAAPC(X2)PVPAAAAT(αGalNAc)AA-NH2)
GalNAc-T2 [1]
  IC50: 396 ± 172 µM

## CC(=O)N[C@H]1[C@@H](O[C@H](C)[C@H](NC(=O)[C@H](C)NC(=O)[C@H](C)NC(=O)[C@H](C)NC(=O)[C@H](C)NC(=O)[C@@H]2CCCN2C(=O)[C@@H](NC(=O)[C@@H]2CCCN2C(=O)[C@H](CSCc2cccs2)NC(=O)[C@@H]2CCCN2C(=O)[C@H](C)NC(=O)[C@H](C)NC(=O)CN)C(C)C)C(=O)N[C@@H](C)C(=O)N[C@@H](C)C(N)=O)O[C@H](CO)[C@H](O)[C@@H]1O [Compound 3] (H-GAAPC(X1)PVPAAAAT(αGalNAc)AA-NH2)
GalNAc-T2 [1]
  IC50: 84.5 ± 25.9 µM

## OCc1cccs1 [Compound 5, 2-thiophenemethanol]
GalNAc-T2 [1]; MUC1a as acceptor substrate
  Relative inhibitory activity against GalNAc-T2: unable to inhibit the enzyme

## N[C@@H](CSCc1cccs1)C(=O)O [Compound 16]
GalNAc-T2 [1]; MUC1a as acceptor substrate
  Relative inhibitory activity against GalNAc-T2: unable to inhibit the enzyme

## CC(=O)N[C@H]1[C@@H](O[C@H](C)[C@H](NC(=O)[C@H](C)NC(=O)[C@H](C)NC(=O)[C@H](C)NC(=O)[C@H](C)NC(=O)[C@@H]2CCCN2C(=O)[C@H](Cc2c[nH]c3ccccc23)NC(=O)[C@@H]2CCCN2C(=O)[C@H](CSCc2cccs2)NC(=O)[C@@H]2CCCN2)C(=O)N[C@@H](C)C(=O)N[C@@H](C)C(N)=O)O[C@H](CO)[C@H](O)[C@@H]1O [Compound 18] (H-PC(X1)PWPAAAAT(αGalNAc)AA-NH2)
GalNAc-T2 [1]; MUC1a as acceptor substrate, read-out: IC50 against GalNAc-T2
  IC50: 55.7 ± 31.5 µM

## CC(=O)N[C@H]1[C@@H](O[C@H](C)[C@H](NC(=O)[C@H](C)NC(=O)[C@H](C)NC(=O)[C@@H](NC(=O)[C@H](CC(C)C)NC(=O)[C@@H]2CCCN2C(=O)[C@H](CC(C)C)NC(=O)[C@@H]2CCCN2C(=O)[C@H](CSCc2cccs2)NC(=O)[C@@H]2CCCN2)C(C)C)C(=O)N[C@@H](C)C(=O)N[C@@H](C)C(N)=O)O[C@H](CO)[C@H](O)[C@@H]1O [Compound 19] (H-PC(X1)PLPLVAAT(αGalNAc)AA-NH2)
GalNAc-T3 [2]; MUC1a as acceptor substrate, read-out: IC50 against GalNAc-T3
  IC50: 171 ± 62.2 µM
GalNAc-T3 [2]; [10]
  Ki: 154 µM
GalNAc-T1 [3]; MUC1a as acceptor substrate, read-out: IC50 against GalNAc-T1
  IC50: 678 ± 197 µM
GalNAc-T1 [3]; [10]
  Ki: 668 µM
GalNAc-T2 [1]
  IC50: 21.4 ± 4.1 µM

## O=C(Nc1ccc(Nc2ccncc2)cc1)c1ccc(Nc2ccnc3ccc([N+](=O)[O-])cc23)cc1 [T3Inh-1]
GalNAc-T2 [4]
  Activity against T2 variant: no activity
GalNAc-T6
  Activity against T6 variant: no activity
GalNAc-T3 [5]
  Activity against GalNAc-T3: can act against GalNAc-T3
FGF23 levels
  FGF23 levels in mice: lower the FGF23 levels

## CC(=O)N[C@H]1[C@@H](OP(=O)(O)OP(=O)(O)OC[C@H]2O[C@@H](n3ccc(=O)[nH]c3=O)[C@H](O)[C@@H]2O)O[C@H](CO)[C@H](O)[C@@H]1O [UDP-GalNAc, uridine diphosphate-GalNAc]
GalNAc-T2 [6]; read-out: Km(UDP-GalNAc) GalNAc-T2
  Km: 10 µM
GalNAc-T1 [7]; read-out: Km(UDP-GalNAc) GalNAc-T1
  Km: 62 µM
GalNAc-T3 [8]; read-out: Km(UDP-GalNAc) GalNAc-T3
  Km: 29 µM

## O=c1cc(-c2ccc(O)c(O)c2)oc2cc(O)cc(O)c12 [luteolin]
GalNAc-T2 [9]
  IC50: 14.7 µM

## MUC1a: model peptide acceptor substrate with sequence AHGVTSAPDTR
GalNAc-T2 [6]; read-out: Km(MUC1a) GalNAc-T2
  Km: 2130 µM
GalNAc-T1 [7]; read-out: Km(MUC1a) GalNAc-T1
  Km: 660 µM
GalNAc-T3 [8]; read-out: Km(MUC1a) GalNAc-T3
  Km: 90 µM

## thiophene [Compound 15]
GalNAc-T2 [1]; MUC1a as acceptor substrate
  Relative inhibitory activity against GalNAc-T2: unable to inhibit the enzyme

— PMC11423303, “Rational Design of Dual-Domain Binding Inhibitors for N-Acetylgalactosamine Transferase 2 with Improved Selectivity over the T1 and T3 Isoforms” (JACS Au, 2024)
